From US11453664B2, “Thymoquinone/harmaline and related reaction products” (Ankh Life Sciences Limited, priority 2018, dated 2022)

Columns and labels:
[1] = tested on: MIN-6 cell line; test: Glucose stimulated insulin secretion assay, Example 5; format: cell-based, mouse; conditions: MIN-6, glucose 2, 10 and 20 mM, 1 hour
Method: In this test, a glucose stimulated insulin secretion assay was performed using the MIN-6 cell line and compounds C1 and C2 of Example 4. The test details and assay conditions are set forth below.
(§1) The cells were washed with KRB containing 0.1% BSA and starved for 1 hour in 2 mM glucose-KRB/BSA at 37° C. in 5% CO2. Following starvation, the cells were treated with or without the compounds at varying glucose concentrations of 2 mM, 10, mM, and 20 mM in KRB/BSA for 1 hour at 37° C. in 5% CO2. The amount of secreted mouse insulin was measured in the KRB/BSA incubation buffer using the mouse insulin ELISA kit from Mercer EXPert Assays. The cells were then lysed for protein quantification. The data presented in FIGS. 5-6 illustrate the secreted insulin test results for glucose and diazoxide, while FIGS. 7-9 (compound C1) and 10-12 (compound C2) illustrate the secreted insulin test results using C1 and C2. The data presented in FIGS. 7-12 are presented as the fold changes in the secreted insulin per milligram protein per hour, compared to the cell control.

[2] = tested on: MIN-6 cell line; test: Glucose stimulated insulin secretion assay, Example 6; format: cell-based, mouse; conditions: MIN-6, 100 nM, 10 mM of glucose, 1 hour
Method: In this test, a glucose stimulated insulin secretion assay was performed using the MIN-6 cell line and a compound mixture of compounds VIIID and VIIIF (MW about 540), referred to as C3. The test details and assay conditions are set forth below.
as §1, with “data is” for “data”, “13 (gliclazide)” for “5-6 illustrate the secreted insulin test results for glucose”, “14-16 (C3)” for “diazoxide, while FIGS. 7-9 (compound C1) and 10-12 (compound C2) illustrate the secreted insulin test results using C1 and C2. The data presented in FIGS. 7-12 are presented”, “change” for “changes”

[3] = tested on: MIN-6 cell line; test: Glucose stimulated insulin secretion assay, Example 7; format: cell-based, mouse; conditions: 2 hours
Method: In this test, another glucose stimulated insulin secretion assay was performed using two test compounds, namely C1 (MW about 378) and C3 (MW about 540). The MIN-6 cell line was used and the test details and assay conditions are set forth below.
The cells were revived and maintained in T-flasks. Upon reaching the required confluency, the cells were seeded in 96-well plates. The seeded cells were serum-starved in the presence of glucose for 30 minutes at 37° C. in 5% CO2. Following starvation, the cells were treated with or without the compounds at the varying glucose concentrations in KRB for 2 hours at 37° C. in 5% CO2. The cell supernatants were collected and tested for insulin secretion using the mouse insulin ELISA kit from Mercer EXPert Assays.

[4] = tested on: NOD mouse model of diabetes; test: NOD mouse model of diabetes, TQ 725 as single agent; format: in vivo, mouse (NOD/ShiLtJ)
Method: This test was designed to evaluate the in vivo activity of the TQ-harmaline reaction product (referred to as “TQ 725”), which was a mixture of compounds I-IV and VI (MW about 378), V and VII (MW about 360), and VIIID and VIIIF (MW about 540), as single agent in the NOD mouse model of diabetes. […] The female NOD mice show evidence of diabetes onset by age week 12 and 70% presenting with diabetes (non-fasting plasma glucose higher than 250 mg/dl) by age week 20. The significant endpoint is assessment of weekly blood glucose levels.
The pancreatic tissues from the test mice were assayed by conventional insulin staining according to the following ratings: 0—no staining on islet cells; 1—of islets with positive stains, stain cells are minimal in number; 2—of islets with positive stain, stain cells are less than 50% of the cells; 3—of the islets with positive stains, stain cells are greater than 50% of the cells.
FIGS. 1 and 2 illustrate the body weight and blood glucose level results collected during the test. In each of these Figures, graph A refers to Group 1, the vehicle control (PO) QD to end; graph B refers to Group 2, 725.001 100 mg/kg days 1-27, followed by 400 mg/kg days 28 to end (PO); graph C refers to Group 3, 725.001 200 mg/kg (PO) QD to end; and graph D refers to Group 4, metformin 600 mg/kg (in H2O) Ad libitum days 1-8, followed by 600 mg/kg (PO) QD days 9 to end.

[5] = Subsequent investigations of activity of the components of TQ 725; conditions: context: diabetes; no method given

CC1=NS(=O)(=O)c2cc(Cl)ccc2N1 [Diazoxide]
effect on insulin secretion [1]: significant inhibition of insulin secretion

Cc1ccc(S(=O)(=O)NC(=O)NN2CC3CCCC3C2)cc1 (centres unmarked) [Gliclazide]
effect on insulin secretion [2]: enhanced insulin secretion | insulin secretion at the lower glucose concentration ([3]; MIN-6, glucose 2 mM, 100 μM): enhanced insulin secretion was observed | insulin secretion at the higher glucose concentration ([3]; MIN-6, glucose 25 mM): saturation effect

CN(C)C(=N)N=C(N)N [Metformin]
body weight ([4]; Group 4: 600 mg/kg, data not deemed reliable): trended downwardly | insulin staining of pancreatic tissues, mean value ([4]; Group 4: ad libitum days 1-8, 600 mg/kg PO days 9-56, rating scale 0-3): 0.50

COc1ccc2c(c1)=NC1C(/C=C3/C=C(C(C)C)C(=O)C=C3C)=NCCC=21 (centres unmarked) [VII]
relative activity among the components of TQ 725 [5]: most active

COc1ccc2c(c1)=NC1C(CC3(O)C=C(C(C)C)C(=O)C=C3C)=NCCC=21 (centres unmarked) [VI]
relative activity among the components of TQ 725 [5]: most active
